Laboratory results reported in patent US8476303B2, “N-aminopyrrolylmethyltetrahydropyridines as anti-cancer agents” (Florida A&M University Board of Trustees, priority 2011, dated 2013).

Assays:
Format in all cases: cell-based
[1] = system: MDA-MB-231 estrogen receptor-negative breast cancer cell line; test: CELLTITER-GLO luminescent cell viability assay, MDA-MB-231; details: MDA-MB-231 cells, 72 h at 37° C.
Method: (§1) The derivatives were examined for their cytotoxic effects on MCF-7 estrogen receptor-positive breast cancer cells, MDA-MB-231 estrogen receptor-negative breast cancer cell line, and Ishikawa cells, using the CELLTITER-GLO (CTG)® luminescent cell viability assay. All the compounds are tested in the three cell lines. Different concentration of compounds, ranging from about 0.01 nM to about 100,000 nM were delivered to 5×10^3 cells per well, which were then incubated for three days at 37° C., followed by the CTG assay.
(§2) Compounds Redda-GM-2-50, Redda-GM-2-55, and Redda-GM-2-58 were tested for their cytotoxic effects on MCF-7 estrogen receptor-positive breast cancer cells, MDA-MB-231 estrogen receptor-negative breast cancer cell line, and Ishikawa cells, using the CELLTITER-GLO® luminescent cell viability assay (Promega, Madison, Wis.) following the manufacturer's instruction.
(§3) CELLTITER-GLO® is a homogeneous method based on the quantification of ATP, which is an indicator of metabolically active cells. In this assay, the number of viable cells in culture is determined based on the quantification of ATP present, which signals the presence of metabolically active cells. Damaged cells are not detected as the ATP leaked from these cells is quickly consumed by ATPases that are also released upon damage). The amount of ATP is determined using a system based on luciferase and D-luciferin resulting in light generation.
(§4) The cell lines were plated in 13, 96 well plates at a density of 5000 cells/well in total volumes of 50 μL in phenol-red free medium and incubated for overnight. […]
(§5) Drug-exposed cells were incubated or 72 h at 37° C. in a 5% CO2 incubator, after which the plates were removed for CELLTITER-GLO® assay and equilibrated at room temperature for 30 min. […] Luminescence results were read on TriLux Luminometer. […] Data were expressed as percentage of untreated control (i.e. treatment value-blank/vehicle value blank), mean±SE for three replications.

[2] = system: MCF-7 estrogen receptor-positive breast cancer cells; test: CELLTITER-GLO luminescent cell viability assay, MCF-7; details: MCF-7 cells, 72 h at 37° C.
Method: as §1, §2, §3, §4, §5

Ishikawa cells = test: CELLTITER-GLO luminescent cell viability assay, Ishikawa; details: 72 h at 37° C.
Method: as §1, §2, §3, §4, §5

IC50 [1] [µM]	IC50 [2] [µM]	Substance	IC50 (Ishikawa cells) [µM]
53	49	3-((1H-pyrrol-1-yl)methyl)-1-(4-methoxyphenylsulfonamido)pyridinium Ylide [Redda-GM-2-58]	28
83.6	31.8	3-((1H-pyrrol-1-yl)methyl)-1-(4-methylphenylsulfonamido)pyridinium Ylide [Redda-GM-2-55]	78.5
44	47	3-((1H-pyrrol-1-yl)methyl)-1-(phenylsulfonimido)pyridinium Ylide [Redda-GM-2-50]	28
